The test system of data set [1] is TTSS-mediated lysis of sheep RBC by EPEC E2348/69. The conditions noted are these: for inhibition of TTSS-mediated RBC lysis caused by E2348/69: peptide 0.56 mg/ml, bacteria preincubated with peptide 1 h, then 5% sheep RBC 3 h at 37°C, released hemoglobin OD 543 nm, relative to EPEC alone (100%), triplicate. The method, then: Twelve-well plates containing peptides and bacteria were incubated for 1 h to allow their interaction. A 5% suspension of RBC was then added, plates were incubated for another 3 h, and supernatants were monitored for released hemoglobin.
K12 means the hemolysis caused by the E. coli non-pathogenic strain. […] Each assay was done by triplicate.
The plates were incubated for 1 h under a 5% CO2 atmosphere to allow the interaction between peptides and bacteria. In turn, red blood cells (RBCs) were separated by centrifugation from fresh defibrinated sheep blood, which was obtained by jugular vein punction, washed three times with 10 mM PBS (pH 7.4) and resuspended at 5% in PBS. Then, 2 ml of the 5% suspension of RBC in PBS was added to the cultures in the plates and incubated for 3 h at 37°C under a 5% CO2 atmosphere. The suspension was removed from the plates and centrifuged at 12,000×g for 1 min. Supernatants were monitored for the presence of released hemoglobin by measuring the OD at 543 nm.

For data set [2], the system named is EPEC E2348/69 adhering to HEp-2 cells. Description: Fluorescent actin staining (FAS), A/E lesion / pedestal formation in HEp-2 cells. Format: cell-based, enteropathogenic E. coli (EPEC) E2348/69. Conditions: peptide 0.56 mg/ml preincubated 1 h with EPEC, MOI 7, 2 h infection, 100 cells examined; EPEC without peptides 80%. From the text:
Since CoilA, CoilB and CoilD were able to inhibit the hemolysis caused by EPEC, which could involve translocator proteins at cell membrane level, we decided to explore whether peptides were also able to block effector proteins delivery and thus prevent the formation of A/E lesions in epithelial cells. Thus, peptides interfering in actin polymerization beneath E2348/69 strain adhering to HEp-2 cells were visualized by FAS (fluorescent actin staining). As expected, EPEC bacteria were able to induce actin polymerization for pedestal formation in almost all the cells (Fig. 2A), the A/E lesions were not seen in uninfected cells (Fig. 2B). CoilA or CoilB preincubation with EPEC caused a decrease in pedestal formation in epithelial cells, showing different effectiveness (Fig. 2C and Fig. 2D).
Figure 2 Coiled-coil peptides inhibit A/E lesion formation caused by EPEC. HEp-2 cells were incubated with EPEC E2348/69 either with or without coiled-coil peptides. […] Incubation of HEp-2 cells with the wild type EPEC E2348/69 strain without peptides (EPEC WT); preincubated with CoilA (EPEC+CoilA), or CoilB (EPEC+CoilB) peptide and uninfected cells. The corresponding percentage of HEp-2 cells carrying pedestals, obtained by examining 100 cells, is shown in panel E. EPEC pH represents a mock control to rule out the biological influence of alkaline pH used to dissolve peptides; PBS at alkaline pH was used in volumes identical to those in which peptides were added to HEp-2 cells.
HEp-2 cells (5×10^4) were seeded in eight well chamber slides (NUNC, Lab-Tek, USA) and incubated at 37°C under a 5% CO2 atmosphere up to 70–90% confluence. Overnight LB culture of the EPEC E2348/69 strain was diluted 1∶20 into 3 ml of DMEM and cultured for 1 h. CoilA, CoilB or CoilD peptides were then added to the culture at a concentration of 0.56 mg/ml and allowed to interact with the bacteria for 1 h at 37°C under a 5% CO2 atmosphere. […] The cells were observed under fluorescence microscopy with a confocal laser microscope (Leica TC SP2).

The test system of data set [3] is EspA polymerization and Tir translocation by EPEC E2348/69. The experiment in a line: Immunofluorescence of EspA and Tir on infected HEp-2 cells (confocal microscopy). The conditions noted are these: bacteria preincubated with peptide 0.56 mg/ml. Format: cell-based, enteropathogenic E. coli (EPEC) E2348/69. The method, then:
(§1) For that, HEp-2 cells were treated with EPEC preincubated either with or without CoilA or CoilB, and EspA and Tir were then visualized using specific antibodies and confocal microscopy.

The subject of data set [4] is EspA and Tir associated to HEp-2 cells infected with EPEC E2348/69. The experiment in a line: Western blot of EPEC-secreted proteins associated to HEp-2 cells. The class given is cell-based, enteropathogenic E. coli (EPEC) E2348/69. Conditions: HEp-2 cells treated 2 h with EPEC preincubated with peptide, washed, lysed. The method, then:
To further determine the effect of CoilA and CoilB on EspA polymerization and Tir translocation were also examined by Western blotting. For that, HEp-2 cells were treated for 2 h with either EPEC alone or preincubated with each of the peptides and exhaustively washed. Cell extracts were prepared and the contents of EspA and Tir (Fig. 4) analyzed by Western blot using specific antibodies. […] The effective amount of EspA and Tir associated per cell may be even higher in non-treated (without peptides) cell cultures because it could be underestimated as some HEp-2 cells are detached from the surface upon infection. The pH buffering solution used to dilute CoilA and CoilB peptides had no effect and the results were similar to the positive control (Fig. 4).
Figure 4 CoilA and CoilB peptides block EspA polymerization and Tir translocation. Cell monolayers were infected with bacteria pretreated with peptides, washed, and lysed for Western blot detection of EspA and Tir proteins with specific rabbit antisera. pH represents a mock control to rule out the biological influence of alkaline pH used to dissolve peptides; PBS at alkaline pH was used in a volume identical to those in which peptides were added to HEp-2 cells.
(§2) HEp-2 monolayers were inoculated with bacteria pretreated with CoilA or CoilB peptides as described for fluorescent actin staining. After infection, the supernatant was removed from the plates and serial dilutions were cultured overnight at 37°C on LB agar plates to determine the viability of bacteria. In turn, the monolayers were resuspended in 40 µl of lysis buffer (1% Triton X-100) and protease inhibitor mix (Complete™ protease inhibitors, Roche). This material was subjected to Western blotting as mentioned above.

In data set [5] the test system is EspA, EspB, EspD and Tir secretion by EPEC E2348/69. Description: In vitro TTSS protein secretion, Western blot of culture supernatants and bacterial lysates. Format: cell-based, enteropathogenic E. coli (EPEC) E2348/69. Conditions: EPEC incubated 4 h in DMEM with peptide 0.56 mg/ml; for secretion of EspD, Western blot: protein detected in pellet of lysed bacteria. The method, then:
EPEC E2348/69 bacterial cultures were incubated in the presence of CoilA or CoilB peptides and concentrated supernatants and bacterial extracts were analyzed by Western blotting using specific antisera directed to EspA, EspB, EspD or Tir. The same amount of cell monolayer was loaded in each lane. pH represents a mock control to rule out the biological influence of alkaline pH used to dissolve peptides. PBS at alkaline pH was used in volumes identical to those in which peptides were added to cultures.
In order to determine the effect of syntethic peptides in the production and excretion of TTSS-proteins by EPEC, cellular and supernatants culture extracts of peptide-treated bacteria were subjected to western blot analysis with specific antisera. The E2348/69 strain grown overnight at 37°C in LB was diluted 1∶100 into 2 ml of DMEM containing CoilA or CoilB peptides at a concentration of 0.56 mg/ml, respectively, and cultured for another 4 h in the presence of 5% CO2. After collecting by centrifugation, bacteria were suspended in 2X SDS sample buffer and boiled for 5 min. The proteins present in culture supernatants were precipitated by the addition of trichloroacetic acid at 20% (wt/vol) and incubated overnight at 4°C. The protein precipitates were then collected by centrifugation at 20,000×g for 25 min, washed twice with 200 µl of ice-cold acetone and resuspended in 20 µl Tris-HCl 10 mM pH 8.8. Whole-cell extracts and culture supernatants were then analyzed by Western blotting using polyclonal rabbit antibodies against EspA, EspB, EspD and Tir recombinant proteins as described by Vilte et al. Primary antibodies were detected with horseradish peroxidase-conjugated goat anti-rabbit IgG (Sigma Chemical Co., St. Louis, MO) diluted 1∶10,000.
A general note: A western blot detects proteins with antibodies after separation by electrophoresis.

Data set [6] has as its system EspA filaments on EPEC E2348/69. The experiment in a line: Immunogold labeling and TEM of EspA filaments. The conditions noted are these: EPEC incubated 4 h with peptide 0.56 mg/ml, fifty filaments, average with standard deviation, EPEC alone 700±150 nm. The class given is cell-based, enteropathogenic E. coli (EPEC) E2348/69. As to the method: Since coil peptides are able to inhibit the TTSS by blocking EspA polymerization, we expected a decrement in EspA filaments on the bacterial cell surface upon incubation with coil peptides.
Figure 6 CoilA peptide blocks the formation of EspA filaments. Immunogold EM of EspA filaments on EPEC cultures incubated either with or without CoilA peptide. After incubation of bacterial samples with specific rabbit anti-EspA serum, the samples were observed by TEM. EPEC alone, without peptides (A, C) and EPEC incubated with CoilA (B, D). Bars, 200 nm (A, B), or 100 nm (C, D). Yellow box frames show EspA filaments.
EPEC E2348/69 strain was grown in LB overnight at 37°C without shaking and diluted 1∶100 into DMEM with 0.56 mg/ml of either CoilA or CoilB, in 24-well plates. The plates were incubated for 4 h under a 5% CO2 atmosphere. A 50 µl droplet of bacterial culture was applied to nickel EM grids (mesh 200) coated with 0.25% Formvar resin (Structure Probe, Inc., SPI supplies, PA, USA) for 2 min. Cells were immediately fixed face down for 15 min with 0.1% buffered glutaraldehyde in PBS (pH 7.3). The grids were washed by transfer across 6 drops of PBS and blocked in PBS containing 0.2% bovine serum albumin for 30 min at room temperature. […] Fifty EspA filaments were identified and the size was measured the length is given as an average with a standard deviation.

Data set [7] concerns EPEC adherence to HEp-2 cells. Description: Non-adherent bacteria in supernatant of infected HEp-2 cells, HEp-2 detaching. Format: cell-based, enteropathogenic E. coli (EPEC) E2348/69. The conditions noted are these: data not shown; for non-adherent bacteria in the supernatant of HEp-2 cells vs EPEC without peptides: EPEC preincubated with peptide; for HEp-2 detaching activity (cytopathic effect) by EPEC: bacteria preincubated with peptide. The method, then: as §1, §2
(Damage to the host cells serves as the signal in cytopathic effect assays.)

A short description of data set [8]: Solubilization of peptides in PBS pH 10.0 / precipitation. Format: physicochemical. The method, then:
CoilA, CoilB, CoilC, CoilD and PepTir peptides were synthesized commercially (Genbiotech, Buenos Aires). Peptides were solubilized with PBS (pH 10.0). […] EPEC E2348/69 [42] was kindly provided by Marta Rivas, ANLIS-Instituto Nacional de Microbiología Dr. Carlos G. Malbrán, Buenos Aires. […] Bacteria were grown in Luria Bertani broth (LB) or Dulbecco's modified Eagle medium (DMEM) lacking phenol red (Gibco-BRL), without antibiotics and bovine fetal serum at 37°C without shaking.

Ends that are not written are not given here.

For the sequence KVNIDENGNAI [PepTir], the “inhibition of TTSS-mediated RBC lysis caused by E2348/69” value (“inhibition” for short) in data set [1] was “did not show inhibitory activity”.

On to LSDSVPELLNSTDLV [CoilC], for which, in data set [1], the “inhibition” value was “did not show inhibitory activity”.

LTTTVNNSQLEIQQM [CoilA]: in data set [1] (peptide 0.15 mg/ml, preincubated with EPEC E2348/69, sheep RBC, relative to EPEC alone), the “hemolysis at reduced peptide concentration” value is 50%. Moreover, the “inhibition” value in data set [1] is on record as “around 95%”. Also, the “HEp-2 cells showing pedestals” value in data set [2] came to 20%. The “secreted EspA (immunofluorescence)” value in data set [3] (anti-EspA sera) was “drastic decrease”. In addition, in data set [3] (anti-Tir sera), the “translocated Tir (immunofluorescence)” value is “drastic decrease”. In data set [4], the “Tir in the cells, Western blot” value is “significant decrease”; the “amount of EspA associated to the cells and attached bacteria (incl. EspA polymers), Western blot” value is “drastically decreased”. In data set [5], the “secretion of EspB to the culture supernatant, Western blot” value was “not clearly observed”; the “secretion of Tir in vitro, Western blot” value is listed as “lightly decreased”; the “secretion of EspD, Western blot” value is given as “affected”. Further, in data set [6], the EspA filament length entry is reported as “about 250±50 nm”. Also, in data set [7], the “non-adherent bacteria in the supernatant of HEp-2 cells vs EPEC without peptides” value is 7 fold and the “HEp-2 detaching activity (cytopathic effect) by EPEC” value was “absent”.

With MSNTLNLLTSARSDM [CoilB], the “inhibition” value in data set [1] was “around 95%”. For the same sequence, the “HEp-2 cells showing pedestals” value in data set [2] amounted to 2%. Also, in data set [4], the “Tir in the cells, Western blot” value is listed as “significant decrease”; the “amount of EspA associated to the cells and attached bacteria (incl. EspA polymers), Western blot” value is recorded as “drastically decreased”. Also, in data set [5], the “secretion of EspB to the culture supernatant, Western blot” value is listed as “blocked the secretion of EspB”; the “secretion of Tir in vitro, Western blot” value was “lightly decreased”; the “secretion of EspD, Western blot” value is “affected”. In addition, in data set [7], the “non-adherent bacteria in the supernatant of HEp-2 cells vs EPEC without peptides” value is given as 40 fold and the “HEp-2 detaching activity (cytopathic effect) by EPEC” value was “absent”. Further, the “tendency to precipitate / aggregation” value in data set [8] (observed in preparation for electron micrographs) is “tendency to precipitate forming clumps”. The “solubility in PBS (pH 10.0)” value in data set [8] (peptides solubilized with PBS pH 10.0) is “not completely soluble”.

With VNDPEKMLELQFAVQ [CoilD], the “inhibition” value in data set [1] was determined as 25%. Also, the “HEp-2 cells showing pedestals” value in data set [2] is “unable to inhibit pedestal formation”.

Source of the values: article PMC2816223, “Designed Coiled-Coil Peptides Inhibit the Type Three Secretion System of Enteropathogenic Escherichia coli” (PLoS ONE, 2010).
